PubChem BioAssay AID2305 (GlaxoSmithKline (GSK), 2010)
pIC50: −log10 of the molar value.

These compounds were tested on P. falciparum 3D7 growth, pLDH absorbance (assay: blood-stage malaria parasite growth potency – strain 3D7, dose response (AID 2305)).
`O=C(/C=C/c1ccc(Cl)c(Cl)c1)NCCCCCN1CCC(C(=O)Nc2ccc3c(c2)OCO3)CC1` showed a pIC50 of 6.08.
With `COC(=O)c1ccc2nc(-c3ccc(/C=C/C(=O)NC4CCN(Cc5ccccc5)CC4)cc3)[nH]c2c1` the pIC50 was 6.15.
`CCN(CC(C)O)C(=O)c1ccc(-c2ccc(-c3nc4c(C)cccc4[nH]3)cc2)cc1` (configuration not stated) gave a pIC50 of 6.08.
Compound `COc1ccc(C)c(Nc2ccnc(Nc3cccc(-c4nc5ccccc5[nH]4)c3)n2)c1` has a pIC50 of 6.14.
With `CN1CCC(NCc2ccc(-c3ccc(C(F)(F)F)cc3)cc2)CC1` the pIC50 was 6.10.
Compound `CCCCNC(=O)c1cc(CNC2CCCCC2)ccc1-c1cccc(CNCc2ccc(-c3ccccc3)cc2)c1` has a pIC50 of 6.28.
For `COc1cc(-n2c(CN3CCCC3)nc3cc(-c4ccc(Cl)cc4)sc3c2=O)ccc1OCCN1CCCC1`, the pIC50 was 5.98.
`c1ccc(-n2ncc(CNCc3ccc(-c4ccc(-c5nc6ccccc6[nH]5)s4)cc3)n2)cc1` was tested, and the pIC50 was 5.85.
`COc1cc(C(=O)N2CCOC(CCN3CCC(Cc4ccc(F)cc4)CC3)(c3ccc(Cl)c(Cl)c3)C2)cc(OC)c1OC` (configuration not stated) gave a pIC50 of 6.05.
Compound `CC(C)(C)C1CCC(C(=O)c2ccc3ccccc3c2O)CC1` (configuration not stated) has a pIC50 of 6.12.
Compound `COc1ccc(CN2CCCN(Cc3cccc(NC(=O)c4ccc(-c5ccccc5)cc4)c3)CC2)cc1` has a pIC50 of 6.03.
With `CO/C(=C\C=C\c1cc2cc(Cl)c(Cl)cc2[nH]1)C(=O)NC1C[C@H]2CCC[C@@H](C1)N2C` (some centres not stated) the pIC50 was 6.00.
`Cc1c(CNCCCNc2nc3ccccc3[nH]2)[nH]c2cc(Cl)cc(Cl)c12` was tested, and the pIC50 was 6.64.
In the case of `Cc1ccc(NC(=O)c2ccc(CN3CCCN(Cc4cccc(C#N)c4)CC3)cc2)cc1F`, the pIC50 was 6.23.
In the case of `COc1ccc(Nc2nccc(N3CCC(NC(=O)c4cccc(C#N)c4)C3)n2)cc1` (configuration not stated), the pIC50 was 6.09.
Compound `N#Cc1cncc(-c2nc3c(N4CCC(Cc5ccccc5)CC4)cccc3n2CCNCc2ccccc2)c1` has a pIC50 of 6.24.
Work on `Cc1nnsc1C(=O)Nc1cccc(-c2ccc(-c3nc4c(C)cccc4[nH]3)s2)c1` yielded a pIC50 of 5.95.
`CCOc1c(CNCCCNc2nc3ccccc3[nH]2)cc(I)cc1OC` was tested, and the pIC50 was 6.18.
`Cc1[nH]c2ccccc2c1C1CCN(CC2CCC(NC(=O)/C=C/c3ccc(Cl)c(Cl)c3)CC2)CC1` (configuration not stated) gave a pIC50 of 6.09.
Work on `FC(F)(F)c1ccc2nc(-c3ccc(-c4ccc(CN5CCN(c6ccncc6)CC5)cc4)cc3)[nH]c2c1` yielded a pIC50 of 7.22.
`COc1ccc(Nc2nccc(N3CCC(NC(=O)c4cc5ccccc5s4)C3)n2)cc1` (configuration not stated) gave a pIC50 of 6.12.
Compound `CC(NC(=O)c1cc(-c2ccccc2)nc2c1cnn2C(C)C)C1CC1` (configuration not stated) has a pIC50 of 5.89.
For `COC(=O)c1ccc(CCC(C)NCC(O)c2cccc(C(F)(F)F)c2)cc1` (configuration not stated), the pIC50 was 6.39.
Work on `COc1ccc(NC(=O)Nc2ccc(-c3ccccc3)cc2)cc1Cn1cnc(N2CCCNCC2)cc1=O` yielded a pIC50 of 6.12.
In the case of `CCn1c(-c2nonc2N)nc2cnc(Oc3cccc(NC(=O)c4ccc(OCCCN5CCCCC5)cc4)c3)cc21`, the pIC50 was 6.03.
Work on `CC[C@H]1CN(Cc2cccc(O)c2)CC[C@H]1CCCc1ccnc2ccc(O)cc12` yielded a pIC50 of 6.28.
Work on `CCNc1cc(C(=O)N[C@@H](Cc2ccccc2)[C@H](O)CNCCC(C)(C)C)c(F)c(N2CCCCS2(=O)=O)c1` yielded a pIC50 of 6.10.
In the case of `COC(=O)c1ccc(NC(=O)c2ccc(CCN3CCC(c4nc(COCC(F)(F)F)c(-c5ccc(F)cc5)o4)CC3)cc2)cc1`, the pIC50 was 5.98.
`Cc1cc2nc(-c3ccc(/C=C/C(=O)NCc4ccc(Cl)c(Cl)c4)cc3)[nH]c2cc1C` was tested, and the pIC50 was 6.09.
In the case of `CCN(CC)CCNC(=O)c1ccc(NC(=O)c2ccc(-c3cc(NC(=O)CC4CCCC4)ccc3C)cc2)cc1`, the pIC50 was 6.25.
In the case of `O=C(CSc1nc2ccc([N+](=O)[O-])cc2s1)Nc1ccccc1-c1ccccc1`, the pIC50 was 5.93.
`O=C(Cn1c(CCc2cccc(F)c2F)nc(=O)c2ccccc21)N(Cc1ccc(-c2ccc(C(F)(F)F)cc2)cc1)C1CCN(C2CCOCC2)CC1` was tested, and the pIC50 was 6.13.
`CCc1cn2c3c(cc(C(=O)N[C@@H](Cc4cc(F)cc(F)c4)[C@H](O)CNC4CCOCC4)cc13)N(C)S(=O)(=O)CC2` gave a pIC50 of 7.52.
For `CCCNCc1ccc(-c2ccc(CN(CCOC)C(=O)c3cccc(C#N)c3)cc2)nc1`, the pIC50 was 5.91.
In the case of `c1ccc(-c2ccc3c(Nc4ccc5[nH]ncc5c4)ccnc3c2)nc1`, the pIC50 was 6.09.
With `COc1ccc2nccc([C@@H](O)CN3CCC(NC(=O)/C=C/c4ccc5[nH]c(=O)ccc5c4)CC3)c2c1` the pIC50 was 6.01.
Work on `CCN(CC)CCCC(C)Nc1ccnc2ccc(-c3ccccc3)cc12` (configuration not stated) yielded a pIC50 of 6.19.
`CCCCOC(=O)[C@H](CCC)NC(=O)c1ccc(NS(=O)(=O)c2ccc3nc(N)[nH]c(=O)c3c2)cc1` gave a pIC50 of 6.70.
In the case of `Cc1ccccc1C1CCN(C2CCC(NC(=O)/C=C/c3cc(F)ccc3F)CC2)CC1` (configuration not stated), the pIC50 was 5.98.
Work on `COC(=O)c1c(NC(=O)c2cccc(C(F)(F)F)c2)sc2c1CCN(Cc1ccccc1)C2` yielded a pIC50 of 5.87.
Work on `CC(=O)Nc1ccc(CN2CCC(N(C)c3cc(NC(=O)c4cccc(F)c4)ccn3)CC2)cc1` yielded a pIC50 of 5.86.
For `CN(CCCNC(=S)NC12CC3CC(CC(C3)C1)C2)CCCNc1ccnc2cc(Cl)ccc12`, the pIC50 was 6.92.
With `CC[C@H](C)[C@@H](C(=O)N1CCOCC1)N1CC[C@H](NS(=O)(=O)CC(C)(C)c2ccc(Cl)cc2)C1=O` the pIC50 was 6.26.
`CN(C)c1ccc(C=C2SC(=Nc3ccccc3)N(c3ccccc3)C2=O)cc1[N+](=O)[O-]` was tested, and the pIC50 was 6.11.
`CC(C)NCC(=O)Nc1cccc(C(=O)Nc2cccc(C(F)(F)F)c2)c1` showed a pIC50 of 6.57.
For `CC(C)COc1ccc(Cl)cc1Cc1ccc(-c2nc3ccc(F)cc3[nH]2)o1`, the pIC50 was 6.07.
`Cc1cc2c(NC(=O)NC3CCN(Cc4ccc(Cl)c(Cl)c4)CC3)cccc2cn1` was tested, and the pIC50 was 6.17.
